Series [1] relates to IDH2-R140Q/Flt3-ITD spleen cells (murine AML). Kind of series: IDH2-R140Q/Flt3-ITD adoptive transfer model. Type of series: in vivo, NCG mice. Conditions: daily oral gavage; Cpd3 50 mg/kg, enasidenib 100 mg/kg. The source says:
Leukemic cells derived from a spontaneous murine model of Idh2/Flt3 AML, as reported by Shih et al (Cancer Discov. 7(5):494-505), were engrafted via adoptive transfer to generate an aggressive model of AML suitable for testing of therapeutic agents. Briefly, 6-8 week old mice harboring a heterozygous internal tandem duplication of FMS-like tyrosine kinase 3 (Flt3-ITD), a heterozygous point mutation of isocitrate dehydrogenase 2 (Idh2-R140Q) preceeded by a loxP flanked STOP codon, and Cre recombinase under the MX dynamin like GTPase 1 (Mx1) promoter were injected i.p. with polyinosinic:polycytidylic acid (poly(I:C)), activating Cre recombinase and inducing hematopoietic-specific expression of the Idh2-R140Q mutation. Spleen cells from these mice were collected after the development of lethal AML (defined by study removal criteria), typically 8-14 months post-poly(I:C) injection. 1×10^5 spleen cells from a single leukemic donor were engrafted by tail vein injection into 6 week old immune deficient NOD-Prkdc^em26Cd52//2rg^em26Cd22/NjuCrl mice (NCG; Charles River). At one week post-engraftment, animals were randomized to vehicle (5% EtOH, 10% Kolliphor EL, in PBS), enasidenib (100 mg/kg), and HOSU-3 (50 mg/kg) treatment arms and dosed by daily oral gavage. Personnel responsible for animal monitoring, dosing, and decisions regarding euthanasia were blinded to treatment arms. Survival was assessed using Kaplan-Meier analysis and p-values were determined using the log-rank test and adjusted using Holm's method.

In another series the test system is HL-60. The series can be described thus: MTS cell proliferation assay, HL-60. Type of series: cell-based. The conditions noted are these: Homo sapiens, 96 hours. Here is the method: (§1) Triplicate wells were set up for each condition.
(§2) The assays were carried out in a blinded fashion.

A further series relates to MOLM-13. The series can be described thus: MTS cell proliferation assay, MOLM-13. Type of series: cell-based. The conditions noted are these: Homo sapiens, 96 hours. The method, then:
as §1, §2
A general note: Formazan colour is commonly taken as a measure of viable cells.

The subject of a further series is OCI-AML3. Kind of series: MTS cell proliferation assay, OCI-AML3. The conditions noted are these: Homo sapiens, OCI-AML-3, 96 hours, read-out: IC50 (μM) at 96 hours, OCI-AML3. Type of series: cell-based. The method, then: as §1, §2
A further series relates to THP1. The series can be described thus: MTS cell proliferation assay, THP1. In kind it is cell-based. Conditions: Homo sapiens, THP-1, 96 hours. Here is the method:
as §1, §2

The test system of another series is MV4-11. Kind of series: MTS cell proliferation assay, MV4-11. Type of series: cell-based. The conditions noted are these: Homo sapiens, MV4-11; 96 hours, MTS; read-out: IC50 (μM) at 96 hours, MV4-11.
A further series addresses T1, DHODH (Homo sapiens, UniProt Q02127).
T1 construct: made in house
Kind of series: DHODH enzymatic assay (DCIP reduction). In kind it is biochemical. The conditions noted are these: for DHODH inhibition, % inhibition: compound concentration not given; for IC50: range in parentheses, read-out: DHODH inhibition, IC50. Here is the method: DHODH Enzymatic Assay: DHODH activity was determined at 25° C. following the reduction of 2,6-dichloroindophenol sodium salt (DCIP) at 600 nm (ε=18 800 M^−1 cm^−1) on a spectrophotometer. The reaction medium used contained 50 mM Tris-HCl, pH 8.0, 0.1% Triton X-100, 0.1 mM LDHO, 0.025 mM CoQ1, and 0.06 mM DCIP. The reaction was started by addition of the enzyme. The inhibitory potency of the compounds was evaluated by measuring the initial velocity of the reaction either in the absence or in the presence of the compounds at the indicated concentrations. The DHODH enzyme used was the recombinant human enzyme prepared as previously described (Helene Munier-Lehmann, et al., J. Med. Chem. 2015, 58:860-877).

The subject of series [2] is AML cell lines (MOLM13, MV4-11, THP1, HL-60, and OCI-AML3).
Experimental: MTS assay for cell growth/viability: Mitochondrial activity was measured to determine cell proliferation using an MTS assay (tetrazolium dye 3′[4,5-dimethylthiazol-2-yl]-2,5-diphenyl-tetrazolium bromide). Metabolically active cells convert MTS tetrazolium salt into a purple formazan product that is soluble in tissue culture medium. The amount of formazan measured at 490 nm absorbance is proportional to the number of proliferating cells. […] Triplicate wells were set up for each condition. At 96 hours, the MTS reagent was added and after approximately 4 hours the plates were read in a spectrophotometer. MTS assays in primary AML cells were done in a similar manner as the cell lines with the following changes: 100K cells were plated per well, and the MTS was done in the presence of an HS5 stromal cell line to support the in vitro growth of the primary cells. Primary cells were incubated with MTS for approximately 8-12 hours (varies with the samples) before reading the absorbance.
Cell proliferation assays were carried out using the MTS assay described herein using five AML cell lines (i.e., MOLM13, MV4-11, THP1, HL-60, and OCI-AML3) with varied genetic backgrounds. The assays were carried out in a blinded fashion.

Molecules are shown by their SMILES. Structures can show the parent of a compound that is named as a salt.

One may read the IC50 as the midpoint of a concentration-inhibition curve.

T1 sequence (Q02127 whole entry): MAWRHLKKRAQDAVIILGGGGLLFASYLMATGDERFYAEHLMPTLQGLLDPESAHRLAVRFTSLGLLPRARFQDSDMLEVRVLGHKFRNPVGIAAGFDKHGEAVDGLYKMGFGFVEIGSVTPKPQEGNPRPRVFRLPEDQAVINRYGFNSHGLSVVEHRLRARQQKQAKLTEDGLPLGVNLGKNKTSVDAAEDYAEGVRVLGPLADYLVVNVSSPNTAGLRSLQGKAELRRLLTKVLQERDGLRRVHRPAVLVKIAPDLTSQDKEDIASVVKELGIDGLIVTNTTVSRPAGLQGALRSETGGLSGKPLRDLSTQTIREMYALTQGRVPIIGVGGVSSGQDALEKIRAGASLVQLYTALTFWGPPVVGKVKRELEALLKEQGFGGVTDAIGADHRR

With `CC(C)(O)CNc1nc(Nc2ccnc(C(F)(F)F)c2)nc(-c2cccc(C(F)(F)F)n2)n1` [Enasidenib, reference compound], the “Median survival” value in series [1] was 34 days.

In the case of `COc1ccc(-c2ccc(-c3cc(C(=O)O)c4cc(Cl)ccc4n3)cc2)cc1` [Cpd5, 6-chloro-2-(4′-methoxy-[1,1′-biphenyl]-4-yl)quinoline-4-carboxylic acid], the IC50 is 20.9 µM in the series on HL-60; 3.02 µM in the series with MOLM-13; 3.37 µM with OCI-AML3; 7.84 µM in the series on THP1; 6.96 µM in the series on MV4-11; 0.099 µM at DHODH. For the same compound, the “DHODH inhibition, % inhibition” value on DHODH was found to be 95%.

On to `O=C(O)c1cc(-c2ccc(-c3ccc(C(F)(F)F)cc3)cc2)nc2ccc(-c3ccc(F)cc3)cc12` [Cpd17, 6-(4-fluorophenyl)-2-(4′-(trifluoromethyl)-[1,1′-biphenyl]-4-yl)quinoline-4-carboxylic acid], for which the “DHODH inhibition, % inhibition” value at DHODH was 8%.

In the case of `O=C(O)c1cc(-c2ccc(-c3ccc(F)cc3)cc2)nc2ccc(Cl)cc12` [Cpd6, 6-chloro-2-(4′-fluoro-[1,1′-biphenyl]-4-yl)quinoline-4-carboxylic acid], the IC50 was 3 µM in the series with HL-60; 6.91 µM in the series with MOLM-13; 6.25 µM in the series on OCI-AML3; 10.4 µM in the series with THP1; 6.48 µM with MV4-11; 0.076 µM at DHODH. In addition, the “DHODH inhibition, % inhibition” value at DHODH is on record as 99%.

As for `CCOc1ccc(-c2ccc(-c3cc(C(=O)O)c4cc(F)ccc4n3)cc2)cc1` [sodium salt form of Cpd3, Sodium 2-(4′-Ethoxy-[1,1′-biphenyl]-4-yl)-6-fluoroquinoline-4-carboxylate], in series [2], the “cytotoxicity compared to the free acid form and brequinar” value is “equally cytotoxic against AML cell lines”.

Values taken from patent US11999697B2, “Methods and compositions for inhibition of dihydroorotate dehydrogenase” (OHIO STATE INNOVATION FOUNDATION, priority 2018, dated 2024).
